Laboratory results from patent US20240384250A1, “FIBROBLAST GROWTH FACTOR 23 MODULATING COMPOUNDS” (THE UAB RESEARCH FOUNDATION, priority 2021, published 2024).
Entries after “also recorded” stand apart in the source; their conditions may differ.

Key:
[1] = test system: FGF21 binding to FGFR isoforms 1c, 2c, 3c, 4; assay: Pull-down and plate binding of FGF21 to FGFR isoforms with sKL or heparin; set-up: species or system human
Method: To study the interaction between Fc-tagged FGFR isoforms (Fc-FGFR), FGF isoforms, and sKL, immunoprecipitation studies were conducted. Protein A beads (6501, BioVision) and protein G beads (6511, BioVision) were used at 25 μl of a 50% stock slurry per sample in a total bead volume of 50 μl. Beads were washed 5× in activity buffer (50 mM Tris [pH 7.4], 200 mM NaCl, 0.01% Tween 20). Bead spin-down assays were all performed for 2 minutes at 5000 g. Beads were resuspended in 1 ml of activity buffer in a 1.5-ml snap cap tube. One microgram of Fc-FGFR1 to 4 was incubated with the beads for 1 hour on a bead rotator. Control samples were incubated with 2 μg of anti-FGF antibody instead of Fc-FGFR. […] Samples were analyzed using SDS-PAGE and Western blotting.
Proteins were coated on 96-well plates (MaxiSorp; 439454, Thermo Fisher Scientific), and proteins were added to wells in 100 μl of enzyme-linked immunosorbent assay (ELISA) coating buffer (E107, Bethyl Laboratories) with a lid placed overtop and incubated at 4° C. overnight. […] Reactions were stopped with ELISA stop solution (E115, Bethyl Laboratories) and analyzed using the Synergy HI plate reader (BioTek) at 450 nm wavelength. […] As a control to remove background absorbance values, wells were coated with an equal amount of BSA to match the amount of protein coated in experimental wells and treated the same as experimental wells. […]

[2] = test system: intact hearts isolated from adult mice; assay: Isolated heart contractility; set-up: species or system mouse; conditions: FGF23 9 ng/ml with heparin 0.06 USP/ml
Method: Isolated heart contractility was performed as described previously. 14,70,71 Briefly, 2- to 3-month-old male CD-1 mice were anesthetized using 3% isoflurane and hearts were carefully removed and placed into oxygenated Ringer's solution composed of 140 mM NaCl, 2.0 mM KCl, 2.5 mM CaCl2), 1.0 mM MgSO4, 1.5 mM K2HPO4, 10 mM N-2-hydroxyethylpiperazine-N-2-ethanesulfonic acid, and 10 mM glucose (pH 7.4). Atria were then removed, and the intact ventricular muscle was attached to small metallic clips hung vertically from a force transducer (ADInstruments) between bipolar platinum-stimulating electrodes and suspended in 25-ml glass tissue chambers (ADInstruments). Heart muscles were perfused with Ringer's solution continuously bubbled with 100% O2 at room temperature. Hearts were stretched to the length of maximum force development and paced at 1 Hz (5 ms pulse duration, 30-60 V; Grass Instruments SD9 Square Pulse Stimulator). After a stable baseline was obtained, hearts were treated with either vehicle or FGF23 (9 ng/ml) alone or in combination with heparin (0.06 USP/ml) while contractile force output was monitored for 30 minutes. Contractile data were recorded and analyzed with LabChart 8 software (ADInstruments). Waveform changes were analyzed for peak contraction force (in millinewtons) and maximum slope of force development and presented as fold change from baseline values.

male BALB/c mice = assay: Serial FGF23 and heparin injections in mice, echocardiography and heart weight; assay type: in vivo, mouse; conditions: heparin 125 USP/kg and/or FGF23 40 μg/kg
Method: FGF23 injections were administered following a similar protocol established previously. 13,72,73 Briefly, 12-week-old male BALB/c mice (The Jackson Laboratory) underwent tail vein injections. The day before the experiment, mice underwent echocardiographic analysis, as described below. Mice were anesthetized in 2.5% isoflurane and placed on a heat pad. Each group consisted of 5 mice, and different groups were injected with isotonic saline, heparin, FGF23, or FGF23 and heparin combined. Per injection, 40 μg/kg of FGF23 and 125, 62.5, or 12.5 USP/kg of heparin dissolved in 200 μl of isotonic saline were used, with 8 hours were used between injections for a total of 5 consecutive days. All injections were performed via the lateral tail vein. On the morning of the sixth day, 16 hours after the final tail vein injection, animals underwent echocardiographic analysis and were killed. Middle sections of hearts were cut along the short axis and stored overnight in 4% phosphate-buffered formaldehyde solution. Sections were sent to IDEXX Laboratories for embedding, hematoxylin and eosin (H&E) staining, and sectioning. Sections for wheat germ agglutinin (WGA) labeling were not stained by IDEXX Laboratories.
Echocardiographic analysis was performed on day 6 of the experiment for FGF23-injected mice by using the Vevo 770 or Vevo 3100 imaging system (FUJIFILM VisualSonics). Animals were anesthetized with 1.5% isoflurane, and normal body temperature was maintained using a rectal probe for temperature monitoring. For analysis, both B- and M-mode images were obtained in the short- and long-axis views. Correct positioning of the transducer was ensured using B-mode imaging in the long-axis view before switching to the short-axis view. Image analysis was performed using Vevo 770 Workstation and Vevo LAB software (FUJIFILM VisualSonics).

With heparin [reference compound] the “binding of FGF21 to any of the FGFR isoforms” value [1] was “does not mediate binding”, the “FGF23-increased contraction force in the presence of heparin” value [2] was “further increase; also recorded: further elevated” and the “Endocardial % EF” value (male BALB/c mice) was 56.51 ± 4.08%. The “Endocardial % FAC” value (male BALB/c mice) was 47.34 ± 2.41%, the Endocardial Area; s (male BALB/c mice) was 5.47 ± 0.44 mm² and the “Endocardial major; d” value (male BALB/c mice) was 7.23 ± 0.11 mm. For the same substance, the Epicardial Area: s (male BALB/c mice) was 18.2 ± 0.63 mm², the Epicardial Area; d (male BALB/c mice) was 22.5 ± 0.78 mm² and the Heart rate (male BALB/c mice) was 448.40 ± 4.52 BPM. The “LV Mass; d” value (male BALB/c mice) was 111.90 ± 5.23 mg and the “T; d” value (male BALB/c mice) was 0.88 ± 0.03 mm.
